# Measured values as given in the supplement of paper PMC10307832.
# Legend:
# Experiment in all cases: relative viability (nuclei count vs DMSO), 5 days (fraction); higher = more cells survive
# [1] = compound: COC1=CC=C(C=C1)CN2C=CC3=C2C=C(C=C3)C(=O)NO + Cc1cc(Nc2cc(N3CCN(C)CC3)nc(Sc3ccc(NC(=O)C4CC4)cc3)n2)n[nH]1 [Tozasertib] (partner 0.1 µM)
# Outline: (§1)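 Lung cancer cell lines were pin-tool dosed in 1536-well plates on the day after seeding, with either a lone drug or a fixed anchor-drug dose plus five library-drug doses (not always all listed) in √10 steps. Nuclei were counted on 4× images after 5 days. Relative viability is the ratio of treated-well to vehicle-well nuclei counts, with each value a median of duplicate plates.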
# Veliparib + Navitoclax = compound: C[C@]1(c2nc3c(C(N)=O)cccc3[nH]2)CCCN1 [Veliparib] + CC1(C)CCC(c2ccc(Cl)cc2)=C(CN2CCN(c3ccc(C(=O)NS(=O)(=O)c4ccc(N[C@H](CCN5CCOCC5)CSc5ccccc5)c(S(=O)(=O)C(F)(F)F)c4)cc3)CC2)C1 [Navitoclax] (partner 0.5 µM)
# Outline: as §1
# Veliparib + Crizotinib = compound: C[C@]1(c2nc3c(C(N)=O)cccc3[nH]2)CCCN1 [Veliparib] + C[C@@H](Oc1cc(-c2cnn(C3CCNCC3)c2)cnc1N)c1c(Cl)ccc(F)c1Cl [Crizotinib] (partner 1 µM)
# Outline: as §1
# Veliparib + Pemetrexed = compound: C[C@]1(c2nc3c(C(N)=O)cccc3[nH]2)CCCN1 [Veliparib] + Nc1nc2[nH]cc(CCc3ccc(C(=O)N[C@@H](CCC(=O)O)C(=O)O)cc3)c2c(=O)[nH]1 [Pemetrexed] (partner 0.2 µM)
# Outline: as §1
Cell Line,relative viability ([1]; first compound 0.253 µM),relative viability ([1]; first compound 0.8 µM),relative viability ([1]; first compound 2.53 µM),relative viability ([1]; first compound 8 µM),relative viability (Veliparib + Navitoclax; first compound 0.02 µM),relative viability (Veliparib + Navitoclax; first compound 0.06325 µM),relative viability (Veliparib + Navitoclax; first compound 0.2 µM),relative viability (Veliparib + Navitoclax; first compound 0.6325 µM),relative viability (Veliparib + Navitoclax; first compound 2 µM),relative viability (Veliparib + Crizotinib; first compound 0.02 µM),relative viability (Veliparib + Crizotinib; first compound 0.06325 µM),relative viability (Veliparib + Crizotinib; first compound 0.2 µM),relative viability (Veliparib + Crizotinib; first compound 0.6325 µM),relative viability (Veliparib + Crizotinib; first compound 2 µM),relative viability (Veliparib + Pemetrexed; first compound 0.02 µM),relative viability (Veliparib + Pemetrexed; first compound 0.06325 µM),relative viability (Veliparib + Pemetrexed; first compound 0.2 µM),relative viability (Veliparib + Pemetrexed; first compound 0.6325 µM),relative viability (Veliparib + Pemetrexed; first compound 2 µM),relative viability ([1]; first compound 0.08 µM)
NCI-H520,0.453,0.428,0.449,0.375,1.16,1.02,1.17,1.04,1.07,0.808,0.698,0.697,0.713,0.836,0.877,0.657,0.904,0.637,0.674,–
NCI-H1395,0.817,0.761,0.781,0.565,–,1.05,1.01,1.11,0.899,–,–,–,–,–,0.762,0.886,0.768,0.792,0.653,0.673
NCI-H1792,–,–,–,–,0.589,0.5,0.67,0.616,0.564,0.98,0.919,0.942,0.93,0.939,0.724,0.503,0.653,0.786,0.66,–
EKVX,0.369,0.409,0.372,0.36,0.814,0.974,0.884,0.891,0.819,0.65,0.744,1.04,0.977,0.913,–,0.391,0.421,0.461,0.444,0.374
CAL-12T,0.344,0.362,0.328,0.323,1.38,1.03,1.3,1.2,1.32,0.702,0.542,0.589,0.616,0.645,1.23,1.06,1.32,1.09,1.3,0.293
SW 900,0.647,0.574,0.612,0.489,–,–,–,–,–,–,–,–,–,–,–,0.492,0.493,0.467,0.511,0.558
NCI-H1734,0.236,0.242,0.251,0.23,0.811,0.807,0.76,0.745,0.866,0.701,0.641,0.728,0.623,0.682,–,0.396,0.398,0.389,0.392,–
NCI-H522,0.589,0.53,0.613,0.545,–,–,–,–,–,–,–,–,–,–,0.981,0.814,0.761,1.16,0.785,–
A549,–,–,–,–,1.25,1.18,1.17,1.16,1.13,0.768,0.699,0.792,0.61,0.891,–,–,–,–,–,–
NCI-H1563,–,–,–,–,–,–,–,–,–,0.91,0.762,0.89,0.857,0.808,0.694,0.766,0.742,0.728,0.685,–
EBC-1,–,–,–,–,0.508,0.405,0.487,0.334,0.407,0.194,0.231,0.213,0.186,0.233,–,–,–,–,–,–
NCI-H661,0.356,0.369,0.328,0.329,–,–,–,–,–,0.91,0.884,0.909,0.885,0.963,0.973,0.897,0.918,0.865,0.901,–
NCI-H650,0.69,0.786,0.673,0.672,–,–,–,–,–,0.696,0.72,0.708,0.665,0.572,0.992,0.895,0.868,0.822,0.961,0.595
IA-LM,–,–,–,–,0.939,0.697,0.755,0.697,0.94,0.947,0.689,0.743,0.753,0.75,–,–,–,–,–,–
NCI-H1648,0.573,0.479,0.399,0.473,–,–,–,–,–,–,–,–,–,–,1,–,–,1.02,0.709,0.415
NCI-H1703,–,–,–,–,1.62,0.849,1.08,0.977,1.29,0.835,0.76,1.06,0.778,0.75,–,–,–,–,–,–
NCI-H2342,0.701,0.544,0.531,0.47,–,–,–,–,–,–,–,–,–,–,0.675,0.721,0.744,0.784,0.771,0.497
NCI-H1299,–,–,–,–,1.06,0.989,1.03,0.996,1.07,1.04,0.945,0.95,0.928,0.948,–,–,–,–,–,–
NCI-H358,0.0969,0.108,0.131,0.0806,–,–,–,–,–,–,0.533,0.564,0.523,0.618,0.206,0.173,0.165,0.146,0.176,–
Calu-6,–,–,–,–,0.946,0.871,0.914,0.824,0.867,0.817,0.735,0.882,0.691,0.796,–,–,–,–,–,–
ABC-1,0.221,0.183,0.162,0.209,–,–,–,–,–,–,0.987,0.846,0.953,0.962,–,–,–,–,–,–
